According to publication PMC5968561, “An effective strategy for recapitulating N-terminal heptad repeat trimers in enveloped virus surface glycoproteins for therapeutic applications” (Chemical Science, 2015):
Like-named read-outs stand apart in the source and are kept apart here. Positions of bridges follow the written chain, without caps; N, C: chain ends. Chains are numbered I, II in the order given.

Experiments:
HIV-1IIIB = assay type: cell-based
HIV-1BaL = assay type: cell-based
Cytotoxicity, XTT assay = assay type: cell-based; settings: human, MT-2 cells, 4 days at 37°C, triplicate, mean ± SD
92TH009 (A/E, R5) = experiment: Infection by primary HIV-1 isolate, p24 ELISA; assay type: cell-based; settings: CEMx174 5.25M7 cells, 100 TCID50, p24 ELISA day 7; triplicate, mean ± SD; read-out: EC50 for inhibiting 92TH009 (A/E, R5)
Description: (§1) HIV-1 infection assay. To measure the inhibitory activity of the peptides on infection of R5 primary HIV-1 isolates, US4/GS 007 (subtype B), 93IN101 (subtype C), and 92TH009 (subtype A/E), 50 µl of an inhibitor at graded concentration in triplicate was incubated with the same volume of a primary HIV-1 isolate at 100 TCIID50 at 37 °C for 30 min, followed by addition of 100 µl of CEMx174 5.25M7 cells (5×10^5/ml). After incubation at 37 °C overnight, the culture medium was replaced with fresh medium without inhibitor. On day 7 postinfection, the culture supernatants were collected for measuring p24 by ELISA, and the percent inhibition and EC50 values were calculated using Calcusyn

US4/GS 007 (B, R5) = experiment: Infection by primary HIV-1 isolate, p24 ELISA; assay type: cell-based; settings: CEMx174 5.25M7 cells, 100 TCID50, p24 ELISA day 7; triplicate, mean ± SD; read-out: EC50 for inhibiting US4/GS 007 (B, R5)
Description: as §1

93IN101 (C, R5) = assay type: cell-based, HIV-1
Description: as §1

HIV-1 NL4-3(D36G) = experiment: Activity against T20-sensitive strain; assay type: cell-based; settings: triplicate, mean ± SD, read-out: EC50, NL4-3 mutant D36G
[1] = CD spectroscopy and CD thermal denaturation; assay type: physicochemical; settings: 10 μM peptide in PBS pH 7.4
From the text: software as described above. 2
Circular dichroism (CD) spectroscopy.

[2] = Sedimentation velocity analysis (SVA); assay type: physicochemical; design: Sedimentation coefficient: unit not given here; settings: 120 μM in PBS pH 7.4, 60,000 rpm, 20 °C
Description: Sedimentation velocity analysis (SVA). All measurements were performed on a ProteomelabTMXL-A/XL-I analytical ultracentrifuge (Beckman Coulter, Fullerton, CA, USA) at 20 °C, as described previously. In brief, three-channel cells were used with an An-60 Tirotor. Lyophilized N-peptides were resuspended in ddH2O (pH 7.0) at ~1 mg/mL. The individual proteins and their mixtures with an equimolar amount of C34 peptide were prepared in PBS and incubated at 37 °C for 30 min. All samples were prepared at a final concentration of 120 μM and were initially scanned at 3000 rpm for 10 min to identify the appropriate wavelength for data collection. Data were collected at 60,000 rpm at a wavelength […]
of 280 nm. […]

proteinase K = proteinase K (Parengyodontium album, UniProt P06873); experiment: Metabolic stability in proteinase K solution; assay type: in vitro ADME; settings: 10 μg/mL, LC-MS/MS, compared with T20
Description: (§2) Tricine-sodium dodecyl sulfate-polyacrylamide gel electrophoresis (Tricine-SDS-PAGE). Polyacrylamide gels (12%) and a BayGene Mini Cell were used for Tricine-SDS-PAGE. The cathode buffer consisted of 0.1 M Tricine, 0.1 M Tris, and 1% SDS, and the anode buffer was 0.2 M Tris. After incubation at 37 °C for 0–24 h, the samples were mixed with Tris-SDS-glycine sample buffer (Invitrogen, Carlsbad, CA) at a ratio of 1:1 and then loaded onto the gels (20 μL/well). Gel electrophoresis was first carried out at a constant voltage of 60 V at room temperature for 1 h and then carried out at a constant voltage of 120 V at room temperature for 2 h. The gel was then stained with Bio-Rad Bio-Safe […]
(§3) Binding assays by size-exclusion chromatography. C34 was mixed with N-peptides (final concentration = 0.20 mM) at a molar ratio of 1:1 in PBS (pH 7.4) and incubated at 37 °C for 30 min. The peptide or peptide mixture (20 μL) was applied to a Phenomenex BioSep-SEC-s2000, 300 mm × 7.80 mm HPLC column equilibrated with PBS (pH 7.4) and eluted at 0.6 mL/min, and the fractions were monitored at 210 nm. Column pressure was 3.5 Mpa.
(§4) Qualification assay. Chromatographic analyses were performed using an ODS-C8 column (5 μm, 100 mm × 2.0mm ID) kept at ambient temperature. The mobile phase was composed of acetonitrile-water-formic acid in the ratio of 60:40:0.1 (v/v/v) at a flow rate of 0.3 mL/min. […]

[3] = Metabolic stability in liver homogenate; assay type: in vitro ADME; settings: SD rat, pooled from 3 rats, 4 mL Tris–HCl 50 mM pH 7.4 per g, 9,000 g supernatant, 10 μg/mL, 37°C, 0-120 min, LC-MS/MS, compared with T20
[4] = Metabolic stability in kidney homogenate; assay type: in vitro ADME; settings: SD rat, pooled from 3 rats, 4 mL Tris–HCl 50 mM pH 7.4 per g, 9,000 g supernatant, 10 μg/mL, 37°C, 0-120 min, LC-MS/MS, compared with T20
[5] = Metabolic stability in rat plasma; assay type: in vitro ADME; settings: 10 μg/mL, LC-MS/MS, compared with T20
Description: as §2, §3, §4

[6] = test system: HIV-1 Env-mediated cell–cell fusion; settings: read-out: EC50 for inhibiting cell–cell fusion; HL2/3 and TZM-bl cells coincubated 6–8 h, 37°C, luciferase; triplicate, mean ± SD
Description: Cell-cell fusion assay. Cell-cell fusion assays were performed as described previously.1 HL2/3 cells, which stably
express HIV Gag, Env, Tat, Rev, and Nef proteins, as well as TZM-bl cells, which stably express large amounts of CD4
and CCR5, were obtained from the NIH AIDS Reference and Reagent Program (contributed by Drs. Barbara Felber and
George Pavlakis and Drs. John C. Kappes and Xiaoyun Wu, respectively). TZM-bl cells (2.5 × 10^4/well) and HL2/3 cells
(7.5 × 10^4/well) were coincubated in 96-well plates (Corning Costar) at 37°C in 5% CO2 in the presence of different
concentrations of inhibitors. After incubation for 6–8 h, the medium was aspirated, the cells were washed and lysed, and
luciferase activity was measured using the Luciferase Assay System (Promega, Madison, WI) on a SpectraMax M5 plate
reader (Molecular Devices, Sunnyvale, CA).

HIV-1 NL4-3 (36G)V38A = settings: read-out: EC50, NL4-3 mutant (36G)V38A; T20-resistant strain; triplicate, mean ± SD
[7] = test system: HIV-1 NL4-3 (36G)V38E/N42S; settings: read-out: EC50, NL4-3 mutant (36G)V38E/N42S; T20-resistant strain; triplicate, mean ± SD
[8] = test system: HIV-1 NL4-3 (36G)V38A/N42T; settings: read-out: EC50, NL4-3 mutant (36G)V38A/N42T; T20-resistant strain; triplicate, mean ± SD
[9] = triplicate, mean ± SD, read-out: EC50 for inhibiting HIV-1IIIB infection
[10] = triplicate, mean ± SD, read-out: EC50 for inhibiting HIV-1BaL infection
[11] = CEMx174 5.25M7 cells, 100 TCID50, p24 ELISA day 7, triplicate, mean ± SD, read-out: EC50 for inhibiting 93IN101 (C, R5)

proteinase K, sequence (P06873 106-384): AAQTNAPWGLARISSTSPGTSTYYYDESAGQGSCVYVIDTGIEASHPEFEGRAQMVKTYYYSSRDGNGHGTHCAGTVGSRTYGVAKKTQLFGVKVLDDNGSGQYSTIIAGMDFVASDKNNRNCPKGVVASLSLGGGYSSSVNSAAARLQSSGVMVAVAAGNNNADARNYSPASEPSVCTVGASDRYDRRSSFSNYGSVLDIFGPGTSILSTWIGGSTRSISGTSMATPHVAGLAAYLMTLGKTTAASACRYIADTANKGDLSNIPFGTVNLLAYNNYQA

| Substance | EC50 (HIV-1IIIB; [9]) [nM] | EC50 (HIV-1BaL; [10]) [nM] | CC50 at 96 h (Cytotoxicity, XTT assay) [nM] | EC50 (92TH009 (A/E, R5)) [nM] | EC50 (US4/GS 007 (B, R5)) [nM] | EC50 (93IN101 (C, R5); [11]) [nM] | EC50 (HIV-1 NL4-3(D36G)) [nM] | EC50 [6] [nM] | EC50 (HIV-1 NL4-3 (36G)V38A) [nM] | EC50 [7] [nM] | EC50 [8] [nM] | other results |
| --- | --- | --- | --- | --- | --- | --- | --- | --- | --- | --- | --- | --- |
| I: Ac-SGIVQKINNIERAIEAQQHLLQLTVWGIKQLQARIL-NH2 / II: Ac-SGIVQKINNIERAIEAQQHLLQLTVWGIKQLQARIL-NH2 / III: Ac-SGIVQKINNIERAIEAQQHLLQLTVWGIKQLQARIL-NH2 (amide I:6-III:11, I:11-II:6, II:11-III:6) [(N36M)3] | 2.67 ± 0.1 | 8.6 ± 3.1 | > 50000 | 1.5 ± 0.1 | 9.4 ± 1.2 | 5.9 ± 2 | 20.2 ± 2.7 | 4 ± 0.4 | 14.5 ± 1.5 | 6 ± 3.7 | 10.2 ± 1.3 | Tm (thermal unfolding transition) ([1]; CD at 222 nm, 15 to 90 °C at 2 °C/min): > 90 °C; Helicity ([1]; CD, mean residue ellipticity at 222 nm): 82%; Sedimentation coefficient ([2]; 280 nm, SEDFIT): 1.39; Observed molecular mass (SVA) ([2]; oligomeric state): 12.5 kDa; Metabolic stability in proteinase K solution (proteinase K): dramatically increased in vitro metabolic stability over T20; Metabolic stability in liver homogenate [3]: dramatically increased in vitro metabolic stability over T20; Metabolic stability in kidney homogenate [4]: dramatically increased in vitro metabolic stability over T20; Metabolic stability in rat plasma [5]: dramatically increased in vitro metabolic stability over T20 |
| Enfuvirtide | – | – | – | 19 ± 0.5 | 20.4 ± 2.9 | – | – | 1.2 ± 0.01 | 620 ± 103 | > 2000 | 539 ± 33 | EC50 (HIV-1IIIB): 57.8 ± 3.2 nM; EC50 (HIV-1BaL): 34.1 ± 9.4 nM; EC50 (93IN101 (C, R5)): 22.1 ± 0.9 nM |
| I: Ac-SEIVKKINNIERAIEAQQHLLQLTVWGIKQLQARIL-NH2 / II: Ac-SEIVKKINNIERAIEAQQHLLQLTVWGIKQLQARIL-NH2 / III: Ac-SEIVKKINNIERAIEAQQHLLQLTVWGIKQLQARIL-NH2 (amide I:6-III:11, I:11-II:6, II:11-III:6) [(N36MEK1)3] | 11.2 ± 4.9 | 74.3 ± 6.5 | 17300 ± 1600 | 14.5 ± 4.1 | 29.2 ± 11.2 | 20.1 ± 5.6 | 106 ± 16 | 59 ± 8.7 | 126 ± 31 | 22.2 ± 2.8 | 71 ± 6.1 | – |
| I: Ac-SEIVKKINNIERAIEAQQKLLQLTVWGIKQLQARIL-NH2 / II: Ac-SEIVKKINNIERAIEAQQKLLQLTVWGIKQLQARIL-NH2 / III: Ac-SEIVKKINNIERAIEAQQKLLQLTVWGIKQLQARIL-NH2 (amide I:6-III:11, I:11-II:6, II:11-III:6) [(N36MEK2)3] | 4.7 ± 0.6 | 20.4 ± 2.5 | 18900 ± 2600 | 1.5 ± 0.6 | 7.1 ± 2.5 | 5.2 ± 0.9 | 19.4 ± 1.9 | 27.1 ± 2.5 | 21.7 ± 2.3 | 4.9 ± 2.9 | 8.1 ± 1.2 | – |
